Experiment [1] concerns the target T1, GTPase KRas (Homo sapiens, UniProt P01116, G12C). In words: Inhibition of GDP-bound KRAS G12C mutant (1 to 169 residues) (unknown origin) assessed as inhibition of SOS-mediated nucleotide exchange pretreated with KRAS for 20 hrs followed by incubation with SOS (564 to 1049 residues) and GTP for 30 mins and later incubated with GST-tagged cRAF (1 to 149 residues) for 10 mins by AlphaLISA assay. It is filed as single protein. (In general: Bead proximity is the source of the signal in Alpha formats.)

Experiment [2] addresses T1, GTPase KRas. In words: Inhibition of KRAS G12C mutant in human MIA PaCa-2 cells assessed as reduction in phosphorylated ERK1/2 level incubated for 2 hrs by MSD assay. It is filed as cell-based.
Experiment [3] concerns the target T1, GTPase KRas. In words: Inhibition of GDP-bound KRAS G12C mutant (1 to 169 residues) (unknown origin) assessed as inhibition of SOS-mediated nucleotide exchange pretreated with KRAS for 5 mins followed by incubation with SOS (564 to 1049 residues) and GTP for 30 mins and later incubated with GST-tagged cRAF (1 to 149 residues) for 10 mins by AlphaLISA assay. It is filed as single protein.

For experiment [4], the system named is GTPase KRas (Homo sapiens), P01116 [G12D]. Nature of the experiment: Binding affinity to GDP-bound KRAS G12D mutant (unknown origin) assessed as bound fraction at 100 uM incubated for 20 hrs by RF-MS analysis relative to control.

Structures are written as SMILES.

With `COC(=O)/C=C/C(=O)N1CCN(c2nc(=O)n(-c3c(C)ccnc3C(C)C)c3nc(-c4ccccc4F)c(Cl)cc23)[C@@H](C)C1`, the IC50 (usually the point on the concentration scale where inhibition reaches its midpoint) at GTPase KRas [1] came to 26 nM; on GTPase KRas [2], 61 nM; on GTPase KRas [3], 95 nM.

`Cc1ccnc(C(C)C)c1-n1c(=O)nc(N2CC(NC(=O)C3CO3)C2)c2cc(Cl)c(-c3ccccc3F)nc21` (centres undefined): the IC50 at GTPase KRas [1] stood at 18 nM; on GTPase KRas [3], 4410 nM.

For `Cc1ccnc(C(C)C)c1-n1c(=O)nc(N2CCN(C(=O)[C@@H]3O[C@H]3CN3CCCCC3)C[C@@H]2C)c2cc(Cl)c(-c3ccccc3F)nc21`, the IC50 was 5 nM on GTPase KRas [1] and 1120 nM at GTPase KRas [3].

Regarding `CCOC(=O)[C@@H]1O[C@H]1C(=O)N1CCN(c2nc(=O)n(-c3c(C)ccnc3C(C)C)c3nc(-c4ccccc4F)c(Cl)cc23)[C@@H](C)C1`, in experiment [4], the Activity is 3.4%. Further, the IC50 amounted to 5 nM on GTPase KRas [1], 96 nM on GTPase KRas [2] and 216 nM on GTPase KRas [3].

Take `Cc1ccnc(C(C)C)c1-n1c(=O)nc(N2C[C@@H](C)N(C(=O)[C@H]3CO3)C[C@@H]2C)c2cc(Cl)c(-c3c(O)cccc3F)nc21`: the Activity in experiment [4] was 8.1%. For the same compound, the IC50 at GTPase KRas [1] stood at 24 nM; on GTPase KRas [3], 653 nM.

For the compound `Cc1ccnc(C(C)C)c1-n1c(=O)nc(N(C)C2CN(C(=O)C3CO3)C2)c2cc(Cl)c(-c3ccccc3F)nc21` (centres undefined), the results for the IC50 at GTPase KRas [1] and at GTPase KRas [3] were 227 nM and 13800 nM, respectively.

For the compound `Cc1ccnc(C(C)C)c1-n1c(=O)nc(N2C[C@@H](C)N(C(=O)[C@H]3CO3)C[C@@H]2C)c2cc(Cl)c(-c3c(N)cccc3F)nc21`, the Activity in experiment [4] came to 15.8%. In addition, the figures for the 50% inhibitory concentration (IC50) at GTPase KRas [1] and on GTPase KRas [3] were 15 nM and 560 nM, respectively.

As for `Cc1ccnc(C(C)C)c1-n1c(=O)nc(N2CCN(C(=O)[C@@H]3O[C@H]3CO)C[C@@H]2C)c2cc(Cl)c(-c3ccccc3F)nc21`, the IC50 at GTPase KRas [1] came out at 64 nM; on GTPase KRas [3] it was 6260 nM.

Turning to `Cc1ccnc(C(C)C)c1-n1c(=O)nc(N2CCN(C(=O)C3OC3C)C[C@@H]2C)c2cc(Cl)c(-c3ccccc3F)nc21` (some centres undefined), the IC50 on GTPase KRas [1] amounted to 96 nM; at GTPase KRas [3], 17800 nM.

For `Cc1ccnc(C(C)C)c1-n1c(=O)nc(N2CCN(C(=O)[C@H]3CO3)C[C@@H]2C)c2cc(Cl)c(-c3ccccc3F)nc21`, the Activity in experiment [4] was 3.4%. Also, the values for the IC50 at GTPase KRas [1] and at GTPase KRas [3] were 27 nM and 3780 nM, respectively.

Regarding `Cc1ccnc(C(C)C)c1-n1c(=O)nc(N2CCN(C(=O)C=O)C[C@@H]2C)c2cc(Cl)c(-c3ccccc3F)nc21`, the IC50 on GTPase KRas [1] came to 39 nM; at GTPase KRas [2], 711 nM; on GTPase KRas [3] it was 610 nM.

Source of the values: ChEMBL document CHEMBL4825768 (ACS Med Chem Lett, 2021).
